In article PMC5314961 (Bioorganic & medicinal chemistry letters, 2017):
Entries after “also recorded” stand apart in the source; their conditions may differ.

Tests used:
HBV [1] = assay: Anti-HBV activity in HepAD38 cells, HBV DNA replication by real-time PCR; assay type: cell-based, Hepatitis B virus; conditions: for anti-HBV activity (result in words): HepAD38 system, concentrations up to 10 µM
HBV [2] = conditions: literature report; cited from earlier work

SMILES	anti-HBV activity (result in words) (HBV [1])	EC50 (HBV [1]; Hepatitis B virus, HePAD38, read-out: Anti-HBV activity, EC50, HepAD38 cells, inhibition of HBV DNA replication by 50%, tested 0.001 to 10 µM, duplicate)	inhibitor of HBV replication (reported in the literature) (HBV [2])
CC1=C(C(=O)OCC(F)(F)F)C(c2ccc(F)cc2Cl)N=C(c2ccccn2)N1 (stereo not drawn) [Compound 26e]	none of them showed activity		
COC(=O)C1=C(CN=[N+]=[N-])NC(c2ccccn2)=NC1c1ccc(F)cc1Cl (stereo not drawn) [Compound 21d]		7.5 µM	
CC1=C(C(=O)NS(=O)(=O)N(C)C)C(c2ccc(F)cc2Cl)N=C(c2ccccn2)N1 (stereo not drawn) [Compound 26f]	none of them showed activity		
CC1=C(Cl)C(c2ccc(F)cc2Cl)N=C(c2ccccn2)N1 (stereo not drawn) [Compound 26c]	none of them showed activity; also recorded: inactive		
CC1(C)CC(=O)C2=C(C1)NC(c1cccnc1)=NC2c1ccc(F)cc1Cl (stereo not drawn) [Compound 1, reference compound]	did not express any activity		submicromolar inhibitor
